Reference: patent US20120193574A1, “Method Of Controlling Crystallization” (University of Durham, priority 2009, published 2012)
“Also recorded” adds a separate entry of the source.

Tests used:
[1] = Crystallisation in microemulsions under confinement; polymorph of the crystals by FTIR, TEM electron diffraction or Raman; assay type: physicochemical
Protocol: Nanocrystals within the microemulsions were analysed by placing drops of the microemulsion onto TEM holey carbon grids and placing in a TEM. Nanocrystal images were taken and selected area electron diffraction patterns from the nanocrystals were captured, from which their polymorphic form could be determined.
Crystals/crystal aggregates were typically extracted via filtration. X-ray diffraction and/or FTIR and/or Raman microscopy techniques were used to determine the polymorph(s) of the extracted crystals/crystal aggregates.
A glycine microemulsion was prepared at ambient temperature containing 4.2 g heptane, 2.8 g of a 1:1 mass ratio of Span 80 and Brij 30, and 0.25 g of glycine solution containing 4% by mass of glycine in water. The microemulsion was shaken by hand to ensure homogeneous mixing. To this was added a microemulsion containing 1.8 g heptane, 2.8 g of a 1:1 mass ratio of Span 80 and Brij 30, 1 g of methanol and 0.25 g of water, with subsequent shaking to ensure homogeneous mixing. The resulting supersaturation ratio (c/csat) was 2.3. The resultant microemulsion was left to stand for 3 weeks at 25° C. […]
ROY microemulsions were prepared at ambient temperatures containing 10% by mass of Igepal CA720 in water and 30 μl/g or 60 μl/g of a ROY in toluene solution containing between 8% to 10% by mass of ROY. […] The crystals/crystal aggregates were extracted by filtration. […]

[2] = cited from earlier work
[3] = Supersaturated solutions stabilised due to confinement in microemulsions; visual inspection or optical microscopy on standing; assay type: physicochemical
Protocol: Glycine microemulsions prepared at ambient temperature containing 4.2 g heptane, 2.8 g of a 1:1 mass ratio of Span 80 and Brij 30, and 0.25 g of glycine solution containing 3-3.5% by mass of glycine in water. The microemulsion was shaken by hand to ensure homogeneous mixing. To this was added a microemulsion containing 1.8 g heptane, 2.8 g of a 1:1 mass ratio of Span 80 and Brij 30, 1 g of methanol and 0.25 g of water, with subsequent shaking to ensure homogeneous mixing. The resulting supersaturation ratio (c/csat) was at 1.7-2.0, i.e. sufficient to cause fast crystallisation of metastable forms in an unconfined system.
Glycine microemulsions prepared at 50° C. containing hexadecane, 15% by mass of a 1:1 mass ratio of Span 20 and Span 80, 1% by mass of ethanol and 1% by mass of a glycine aqueous solution containing 2.5% by mass of glycine. The microemulsion was placed in a water bath at 50° C. and cooled to 26° C. over 24 hours. The resulting supersaturation ratio (c/csat) was at least 4, i.e. sufficient to cause rapid crystallisation in an unconfined system.
ROY microemulsions prepared at ambient temperatures containing 10% by mass of Igepal CA720 in water, 30 μl/g of a toluene solution containing 6% by mass of ROY and 12 μl/g of heptane. The resulting supersaturation ratio (c/csat) was at least 4, i.e. sufficient to cause crystallisation typically within a few hours in an unconfined system.
The mefenamic acid-in-DMF bulk solutions and microemulsions, were prepared at elevated temperature (˜50-60° C.). The microemulsion consisted of 3 g of AOT solution containing 3% by mass of AOT in heptane to which was added 20 μl of a mefenamic acid solution containing 70-75 mg of mefenamic acid per ml DMF. The microemulsion was cooled from 50 to 8° C. over 12 hours and then left at 8° C. The resulting supersaturation ratio (c/csat) was 3.9-4.1, i.e. sufficient to cause crystallisation of metastable form II typically within a few hours in an unconfined system.

## Cc1cccc(Nc2ccccc2C(=O)O)c1C [mefenamic acid]
[1]; Example 4: 80-100 mg mefenamic acid per ml DMF in AOT/heptane microemulsion cooled from 50 to 8° C.
  resulting supersaturation ratio (c/csat): 4.4-5.5
[1]; Example 4: DMF-in-heptane/AOT microemulsion cooled from 50 to 8° C. over 12 hours
  polymorph of crystals (Raman): predominantly of Form I; also recorded: characteristic Form I peaks
[2]; irrespective of rate of crystallization or crystallization temperature
  polymorph from crystallization in bulk DMF: only produces the metastable form II
[3]; 70-75 mg mefenamic acid per ml DMF in AOT/heptane microemulsion cooled from 50 to 8° C.
  resulting supersaturation ratio (c/csat): 3.9-4.1
[3]; 70-75 mg/ml mefenamic acid in DMF, AOT/heptane microemulsion at 8° C., after 1 month
  crystals by visual inspection or optical microscopy on standing: No crystals were observed

## NCC(=O)O [glycine]
[1]; Example 1: 4% by mass glycine solution in heptane/Span 80/Brij 30 microemulsion plus methanol antisolvent microemulsion
  resulting supersaturation ratio (c/csat): 2.3
[1]; Example 1: methanol antisolvent microemulsion added, c/csat 2.3, 3 weeks at 25° C.
  polymorph of extracted crystals (FTIR): predominantly of γ-glycine; also recorded: stable γ-polymorph of glycine with virtually no α-polymorph
[1]; Example 2: hexadecane/Span 20/Span 80 microemulsion, 7% glycine solution, cooled 50 to 25° C. over 24 hours, after 7 days
  polymorph of nanocrystals/nanocrystal aggregates (TEM): predominantly of γ-glycine; also recorded: hexagonal γ-polymorph of glycine
[1]; Example 3: heptane/Span 80/Brij 30 microemulsion, 4% glycine solution, vapour diffusion of methanol, ambient temperature
  polymorph of crystals/crystal aggregates (FTIR): predominantly the γ-polymorph of glycine with some α-polymorph
[2]; ambient pressure
  temperatures at which the γ-phase is the most stable ambient pressure form: < 165 °C
[2]; ambient temperatures
  energy of γ-phase below the α-phase: ~0.0478 kcal/mol
  energy of γ-phase below the β-phase: ~0.143 kcal/mol
[2]; bulk phases
  stability of γ-polymorph over α-polymorph in the bulk phases: ~0.048 kcal/mol
[3]; 2.5% by mass glycine solution, hexadecane/Span 20/Span 80 microemulsion cooled 50 to 26° C. over 24 hours
  resulting supersaturation ratio (c/csat): at least 4
[3]; 2.5% glycine solution, hexadecane/Span 20/Span 80 microemulsion cooled to 26° C., after 1 month
  crystals by visual inspection or optical microscopy on standing: No crystals were observed
[3]; 3-3.5% by mass glycine solution, heptane/Span 80/Brij 30 microemulsion plus methanol microemulsion
  resulting supersaturation ratio (c/csat): 1.7-2.0
[3]; microemulsion from 3% by mass glycine in water, after 3 months
  crystals by visual inspection or optical microscopy on standing: No crystals were observed
[3]; microemulsion from 3.5% glycine in water, after 3 months
  crystals by visual inspection or optical microscopy on standing: only a few μm sized crystals apparent

## Cc1cc(C#N)c(Nc2ccccc2[N+](=O)[O-])s1 [ROY, 5-Methyl-2-[(2-nitrophenyl)amino]-3-thiophenecarbonitrile]
[1]; Example 5: Igepal CA720/water microemulsion, 8% to 10% ROY in toluene, dropwise heptane antisolvent, ambient
  polymorph of crystals/crystal aggregates (FTIR): yellow prism polymorph of ROY
[2]; ambient temperatures
  energy of yellow prism form below the orange needle and orange prism forms: ~0.0717 kcal/mol
[3]; 6% ROY in toluene, Igepal CA720/water microemulsion with heptane, after 1 month
  crystals by visual inspection or optical microscopy on standing: No crystals were observed
[3]; 6% by mass ROY in toluene, 30 μl/g, Igepal CA720/water microemulsion, 12 μl/g heptane
  resulting supersaturation ratio (c/csat): at least 4

B1: egg white albumin: Albumin is used to exemplify how protein crystallisation can be achieved (protein, UniProt P01012 2-386, looked up)
Ovalbumin: GSIGAASMEFCFDVFKELKVHHANENIFYCPIAIMSALAMVYLGAKDSTRTQINKVVRFDKLPGFGDSIEAQCGTSVNVHSSLRDILNQITKPNDVYSFSLASRLYAEERYPILPEYLQCVKELYRGGLEPINFQTAADQARELINSWVESQTNGIIRNVLQPSSVDSQTAMVLVNAIVFKGLWEKAFKDEDTQAMPFRVTEQESKPVQMMYQIGLFRVASMASEKMKILELPFASGTMSMLVLLPDEVSGLEQLESIINFEKLTEWTSSNVMEERKIKVYLPRMKMEEKYNLTSVLMAMGITDVFSSSANLSGISSAESLKISQAVHAAHAEINEAGREVVGSAEAGVDAASVSEEFRADHPFLFCIKHIATNAVLFFGRCVSP
[1]; Example 6: isooctane/AOT microemulsion, 5 mg albumin per ml water, methanol microemulsion added, after 48 hours
  crystallisation observed by optical microscopy: crystals observed
